Reference: patent publication US20260125360A1, “HERBICIDAL IMIDAZOLE COMPOUNDS” (SYNGENTA CROP PROTECTION AG, priority 2022, published 2026)

Legend:
Type in all cases: in vivo
Details in all cases: 250 g/ha, evaluated after 13 days
[1] = test system: Amaranthus palmeri (AMAPA); assay: Post-emergence herbicide glasshouse test
Method: (§1) Seeds of a variety of test species are sown in standard soil in pots Amaranthus palmeri (AMAPA), Amaranthus retoflexus (AMARE), Echinochloa crus-galli (ECHCG), Ipomoea hederacea (IPOHE)). After cultivation for one day (pre-emergence) or after 8 days cultivation (post-emergence) under controlled conditions in a glasshouse (at 24/16° C., day/night; 14 hours light; 65% humidity), the plants are sprayed with an aqueous spray solution derived from the formulation of the technical active ingredient in acetone/water (50:50) solution containing 0.5% Tween 20 (polyoxyethelyene sorbitan monolaurate, CAS RN 9005-64-5). Compounds are applied at 250 g/ha unless otherwise stated. The test plants are then grown in a glasshouse under controlled conditions in a glasshouse (at 24/16° C., day/night; 14 hours light; 65% humidity) and watered twice daily. After 13 days for pre and post-emergence, the test is evaluated for the percentage damage caused to the plant. The biological activities are shown in the following table on a five-point scale (5=81-100%; 4=61-80%; 3=41-60%; 2=21-40%; 1=0-20%).

[2] = test system: Amaranthus retoflexus (AMARE); assay: Post-emergence herbicide glasshouse test
Method: as §1

[3] = test system: Echinochloa crus-galli (ECHCG); assay: Post-emergence herbicide glasshouse test
Method: as §1

[4] = test system: Ipomoea hederacea (IPOHE); assay: Post-emergence herbicide glasshouse test
Method: as §1

[5] = test system: Amaranthus palmeri (AMAPA); assay: Pre-emergence herbicide glasshouse test
Method: as §1

[6] = test system: Amaranthus retoflexus (AMARE); assay: Pre-emergence herbicide glasshouse test
Method: as §1

[7] = test system: Echinochloa crus-galli (ECHCG); assay: Pre-emergence herbicide glasshouse test
Method: as §1

[8] = test system: Ipomoea hederacea (IPOHE); assay: Pre-emergence herbicide glasshouse test
Method: as §1

| Structure (SMILES) | percentage damage caused to the plant, AMAPA (five-point scale) [1] | percentage damage caused to the plant, AMARE (five-point scale) [2] | percentage damage caused to the plant, ECHCG (five-point scale) [3] | percentage damage caused to the plant, IPOHE (five-point scale) [4] | percentage damage caused to the plant, AMAPA (five-point scale) [5] | percentage damage caused to the plant, AMARE (five-point scale) [6] | percentage damage caused to the plant, ECHCG (five-point scale) [7] | percentage damage caused to the plant, IPOHE (five-point scale) [8] |
| --- | --- | --- | --- | --- | --- | --- | --- | --- |
| CCc1cc(Cn2cc(C(F)(F)F)nc2-c2ccc(Cl)nc2)no1 [Compound 1.046] | 5 (5=81-100%) | 5 (5=81-100%) | 4 (4=61-80%) | 4 (4=61-80%) | 5 (5=81-100%) | 5 (5=81-100%) | 5 (5=81-100%) | 5 (5=81-100%) |
| FC(F)n1ccc(Cn2cc(C(F)(F)F)nc2-c2ccc(Cl)nc2)n1 [Compound 1.051] | 5 (5=81-100%) | 5 (5=81-100%) | 1 (1=0-20%) | 4 (4=61-80%) | 5 (5=81-100%) | 5 (5=81-100%) | 1 (1=0-20%) | 5 (5=81-100%) |
| Cn1cc(Cn2cc(C(F)(F)F)nc2-c2ccc(Cl)nc2)nn1 [Compound 1.057] | 4 (4=61-80%) | 4 (4=61-80%) | 4 (4=61-80%) | 4 (4=61-80%) | 5 (5=81-100%) | 5 (5=81-100%) | 4 (4=61-80%) | 5 (5=81-100%) |
| FC(F)c1cc(Cn2cc(C(F)(F)F)nc2-c2ccc(Cl)nc2)no1 [Compound 1.059] | 5 (5=81-100%) | 5 (5=81-100%) | 5 (5=81-100%) | 5 (5=81-100%) | 5 (5=81-100%) | 5 (5=81-100%) | 5 (5=81-100%) | 5 (5=81-100%) |
| CCn1ccc(Cn2cc(C(F)(F)F)nc2-c2ccc(Cl)nc2)n1 [Compound 1.063] | 5 (5=81-100%) | 5 (5=81-100%) | 1 (1=0-20%) | 3 (3=41-60%) | 5 (5=81-100%) | 5 (5=81-100%) | 1 (1=0-20%) | 5 (5=81-100%) |
| Cc1nnc(Cn2cc(C(F)(F)F)nc2-c2ccc(Cl)nc2)s1 [Compound 1.065] | 5 (5=81-100%) | 5 (5=81-100%) | 1 (1=0-20%) | 1 (1=0-20%) | 5 (5=81-100%) | 5 (5=81-100%) | 1 (1=0-20%) | 5 (5=81-100%) |
| Cn1nnc(Cn2cc(C(F)(F)F)nc2-c2ccc(Cl)nc2)c1C(F)F [Compound 1.070] | 4 (4=61-80%) | 4 (4=61-80%) | 1 (1=0-20%) | 4 (4=61-80%) | 5 (5=81-100%) | 5 (5=81-100%) | 1 (1=0-20%) | 4 (4=61-80%) |
| Cc1cc(Cn2cc(C(F)(F)F)nc2-c2ccc(Cl)nc2)no1 [Compound 1.075] | 5 (5=81-100%) | 5 (5=81-100%) | 5 (5=81-100%) | 5 (5=81-100%) | 5 (5=81-100%) | 5 (5=81-100%) | 5 (5=81-100%) | 5 (5=81-100%) |
| FC(F)(F)c1cn(Cc2ccsn2)c(-c2ccc(Cl)nc2)n1 [Compound 1.077] | 4 (4=61-80%) | 4 (4=61-80%) | 1 (1=0-20%) | 1 (1=0-20%) | 5 (5=81-100%) | 5 (5=81-100%) | 1 (1=0-20%) | 1 (1=0-20%) |
| Cn1nc(Cn2cc(C(F)(F)F)nc2-c2ccc(Cl)nc2)cc1Cl [Compound 1.084] | 4 (4=61-80%) | 4 (4=61-80%) | 1 (1=0-20%) | 4 (4=61-80%) | 5 (5=81-100%) | 5 (5=81-100%) | 3 (3=41-60%) | 5 (5=81-100%) |
| CCn1nnc(Cn2cc(C(F)(F)F)nc2-c2ccc(Cl)nc2)n1 [Compound 1.086] | 5 (5=81-100%) | 5 (5=81-100%) | 5 (5=81-100%) | 5 (5=81-100%) | 5 (5=81-100%) | 5 (5=81-100%) | 5 (5=81-100%) | 5 (5=81-100%) |
| Cn1cnc(Cn2cc(C(F)(F)F)nc2-c2ccc(Cl)nc2)n1 [Compound 1.087] | 5 (5=81-100%) | 5 (5=81-100%) | 5 (5=81-100%) | 5 (5=81-100%) | 5 (5=81-100%) | 5 (5=81-100%) | 5 (5=81-100%) | 5 (5=81-100%) |
| CCc1nc(Cn2cc(C(F)(F)F)nc2-c2ccc(Cl)nc2)no1 [Compound 1.090] | 5 (5=81-100%) | 5 (5=81-100%) | 4 (4=61-80%) | 5 (5=81-100%) | 5 (5=81-100%) | 5 (5=81-100%) | 4 (4=61-80%) | 5 (5=81-100%) |
